System: K562
Test: In vitro cell growth inhibitory activity against K562 human chronic myelogenous leukemia cell line
Type: functional, cell-based

IC50	Structure (SMILES)
3.5 µM	CC(=O)/C=C/c1cccc(C(F)(F)F)c1
2.6 µM	CC(=O)/C=C/c1ccc([N+](=O)[O-])cc1
3.3 µM	CC(=O)/C=C/c1ccc(C(F)(F)F)cc1
20 µM	CC(=O)/C=C/c1cccs1
7.4 µM	CC(=O)/C=C/c1ccc(Br)cc1F
7.6 µM	CC(=O)/C=C/c1ccc2ccccc2c1
68 µM	COc1cc(/C=C/C(C)=O)ccc1O [DEHYDROZINGERONE]
9.9 µM	COc1cccc(/C=C/C(C)=O)c1O
> 100 µM	CC(=O)/C=C/c1ccco1
5.8 µM	COc1cc(/C=C/C(C)=O)cc(OC)c1
9.3 µM	COc1cc(OC)c(/C=C/C(C)=O)c(OC)c1
42 µM	COc1ccc(/C=C/C(C)=O)cc1O
7.9 µM	CC(=O)/C=C/c1ccc(Cl)cc1Cl
2.6 µM	CC(=O)/C=C/c1cccc([N+](=O)[O-])c1
21 µM	CC(=O)/C=C/c1ccc(C(C)C)cc1
5.3 µM	CC(=O)/C=C/c1cc(Br)ccc1F
> 100 µM	CC(O)CCc1ccc(O)cc1 (configuration not stated)
34 µM	COc1ccc(/C=C/C(C)=O)cc1OC

IC50	Structure (SMILES)
56 µM	COc1cc(/C=C/C(C)=O)cc(OC)c1O
6.1 µM	CC(=O)/C=C/c1ccc(F)cc1
79 µM	COc1ccc(/C=C/C(C)=O)cc1
20 µM	CC(=O)/C=C/C=C/c1ccccc1
68 µM	COc1cc(N(C)C)ccc1/C=C/C(C)=O
10.3 µM	CC(=O)/C=C/c1ccc(OCc2ccccc2)cc1
8.4 µM	CC(=O)/C=C/c1ccc(OCc2ccccc2)c(OCc2ccccc2)c1
> 100 µM	CC(=O)CCc1ccc(O)cc1 [RASPBERRYKETONE]
17 µM	COc1cc(/C=C/C(C)=O)cc(OC)c1OC
2.9 µM	CC(=O)/C=C/c1ccc(F)c(Br)c1
5.6 µM	CC(=O)/C=C/c1ccc(Br)cc1
60 µM	CC(=O)/C=C/c1ccc(O)cc1
90 µM	CC(=O)/C=C/c1ccc(N(C)C)cc1
15 µM	CSc1ccc(/C=C/C(C)=O)cc1
30 µM	COc1ccc(/C=C/C(C)=O)c(OC)c1
7.5 µM	CC(=O)/C=C/c1ccc(C)cc1
1.9 µM	CC(=O)/C=C/c1c(F)c(F)c(F)c(F)c1F

Structure (SMILES)	IC50
CC(=O)/C=C/c1ccc(Cl)cc1	8.3 µM
CC(=O)/C=C/c1ccc2c(c1)OCO2	12 µM
